Biological target: human α7 nAChR (Homo sapiens, UniProt P36544)
Assay: cell-based
Settings: EC50 of human α7nAChR(nM), HEK293T/17 cells transfected with human α7 nAChR; PNU-120596 added; relative to epibatidine 1 μM positive control

Chain of human α7 nAChR (P36544 23-502): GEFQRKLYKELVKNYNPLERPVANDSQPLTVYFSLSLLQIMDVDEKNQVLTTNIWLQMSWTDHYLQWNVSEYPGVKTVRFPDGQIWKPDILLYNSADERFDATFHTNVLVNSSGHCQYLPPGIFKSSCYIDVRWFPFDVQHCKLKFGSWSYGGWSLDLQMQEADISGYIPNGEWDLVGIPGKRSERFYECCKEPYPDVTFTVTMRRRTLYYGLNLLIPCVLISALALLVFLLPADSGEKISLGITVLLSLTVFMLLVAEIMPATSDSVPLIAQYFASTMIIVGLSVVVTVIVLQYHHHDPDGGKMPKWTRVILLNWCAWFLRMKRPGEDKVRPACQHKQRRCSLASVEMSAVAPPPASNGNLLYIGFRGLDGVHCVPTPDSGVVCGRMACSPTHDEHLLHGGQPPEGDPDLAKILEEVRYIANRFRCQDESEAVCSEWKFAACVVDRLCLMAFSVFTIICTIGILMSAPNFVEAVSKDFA

| SMILES | EC50 [nM] |
| --- | --- |
| CSc1ccccc1-n1cc(C(=O)N[C@@H]2CN3CCC2CC3)ccc1=O [Example 79, N-[(3S)-1-azabicyclo[2.2.2]octan-3-yl]-1-[2-(methylthio)phenyl]-6-oxo-3-pyridinecarboxamide] | 100 to 500 |
| Cc1cnc(-c2ccccc2-n2cc(C(=O)NC3CN4CCC3CC4)ccc2=O)s1 (stereo not shown) [Example 106, N-(1-azabicyclo[2.2.2]octan-3-yl)-1-[2-(5-methyl-2-thiazolyl)phenyl]-6-oxo-3-pyridinecarboxamide] | 500 to 1000 |
| CSc1cc(C(C)C)ccc1-n1cc(C(=O)NC2CN3CCC2CC3)ccc1=O (stereo not shown) [Example 96, N-(1-azabicyclo[2.2.2]octan-3-yl)-1-[2-(methylthio)-4-propan-2-ylphenyl]-6-oxo-3-pyridinecarboxamide] | < 100 |
| COc1ccc(-n2cc(C(=O)NC3CN4CCC3CC4)ccc2=O)c(OC)c1 (stereo not shown) [Example 49, N-(1-azabicyclo[2.2.2]octan-3-yl)-1-(2,4-dimethoxyphenyl)-6-oxo-3-pyridinecarboxamide] | 100 to 500 |
| CS(=O)(=O)c1ccc(-n2cc(C(=O)NC3CN4CCC3CC4)ccc2=O)cc1 (stereo not shown) [Example 101, N-(1-azabicyclo[2.2.2]octan-3-yl)-1-(4-methylsulfonylphenyl)-6-oxo-3-pyridinecarboxamide] | 100 to 500 |
| Cc1ccc(-c2ccc(-n3cc(C(=O)NC4CN5CCC4CC5)ccc3=O)cc2)s1 (stereo not shown) [Example 108, N-(1-azabicyclo[2.2.2]octan-3-yl)-1-[4-(5-methyl-2-thiophenyl)phenyl]-6-oxo-3-pyridinecarboxamide] | 100 to 500 |
| COc1ccc(Cl)cc1-n1cc(C(=O)NC2CN3CCC2CC3)ccc1=O (stereo not shown) [Example 56, N-(1-azabicyclo[2.2.2]octan-3-yl)-1-(5-chloro-2-methoxyphenyl)-6-oxo-3-pyridinecarboxamide] | 500 to 1000 |
| Cc1ccc(-c2ccccc2-n2cc(C(=O)NC3CN4CCC3CC4)ccc2=O)s1 (stereo not shown) [Example 111, N-(1-azabicyclo[2.2.2]octan-3-yl)-1-[2-(5-methyl-2-thiophenyl)phenyl]-6-oxo-3-pyridinecarboxamide] | 100 to 500 |
| O=C(NC1CN2CCC1CC2)c1ccc(=O)n(-c2ccccc2OCc2ccccc2)c1 (stereo not shown) [Example 63, N-(1-azabicyclo[2.2.2]octan-3-yl)-6-oxo-1-(2-phenylmethoxyphenyl)-3-pyridinecarboxamide] | > 1000 |
| Cc1ccc(-n2cc(C(=O)NC3CN4CCC3CC4)ccc2=O)c(C)c1 (stereo not shown) [Example 32, N-(1-azabicyclo[2.2.2]octan-3-yl)-1-(2,4-dimethylphenyl)-6-oxo-3-pyridinecarboxamide] | > 1000 |
| O=C(NC1CN2CCC1CC2)c1ccc(=O)n(-c2cc(Cl)c(Cl)cc2Cl)c1 (stereo not shown) [Example 60, N-(1-azabicyclo[2.2.2]octan-3-yl)-1-(2,4,5-trichlorophenyl)-6-oxo-3-pyridinecarboxamide] | 500 to 1000 |
| CC(C)Sc1ccccc1-n1cc(C(=O)NC2CN3CCC2CC3)ccc1=O (stereo not shown) [Example 81, N-(1-azabicyclo[2.2.2]octan-3-yl)-6-oxo-1-[2-(propan-2-ylthio)phenyl]-3-pyridinecarboxamide] | 100 to 500 |
| CCSc1cc(Cl)ccc1-n1cc(C(=O)NC2CN3CCC2CC3)ccc1=O (stereo not shown) [Example 97, N-(1-azabicyclo[2.2.2]octan-3-yl)-1-[4-chloro-2-(ethylthio)phenyl]-6-oxo-3-pyridinecarboxamide] | < 100 |
| O=C(NC1CN2CCC1CC2)c1ccc(=O)n(-c2ccc(Oc3ccccc3)cc2)c1 (stereo not shown) [Example 73, N-(1-azabicyclo[2.2.2]octan-3-yl)-6-oxo-1-(4-phenoxyphenyl)-3-pyridinecarboxamide] | 500 to 1000 |
| CSc1cc(C)ccc1-n1cc(C(=O)N[C@H]2CN3CCC2CC3)ccc1=O [Example 90, N-[(3R)-1-azabicyclo[2.2.2]octan-3-yl]-1-[4-methyl-2-(methylthio)phenyl]-6-oxo-3-pyridinecarboxamide] | < 100 |
| O=C(NC1CN2CCC1CC2)c1ccc(=O)n(-c2ccccc2Sc2ccccc2)c1 (stereo not shown) [Example 95, N-(1-azabicyclo[2.2.2]octan-3-yl)-6-oxo-1-[2-(phenylthio)phenyl]-3-pyridinecarboxamide] | < 100 |
| O=C(NC1CN2CCC1CC2)c1ccc(=O)n(-c2ccccc2-c2cccs2)c1 (stereo not shown) [Example 110, N-(1-azabicyclo[2.2.2]octan-3-yl)-6-oxo-1-(2-thiophene-2-ylphenyl)-3-pyridinecarboxamide] | 100 to 500 |
| O=C(NC1CN2CCC1CC2)c1ccc(=O)n(-c2ccc(F)cc2)c1 (stereo not shown) [Example 7, N-(1-azabicyclo[2.2.2]octan-3-yl)-1-(4-fluorophenyl)-6-oxo-3-pyridinecarboxamide] | 500 to 1000 |
| CSc1ccccc1-n1cc(C(=O)N[C@H]2CN3CCC2CC3)ccc1=O [Example 78, N-[(3R)-1-azabicyclo[2.2.2]octan-3-yl]-1-[2-(methylthio)phenyl]-6-oxo-3-pyridinecarboxamide] | < 100 |
| O=C(NC1CN2CCC1CC2)c1ccc(=O)n(-c2ccccc2Cl)c1 (stereo not shown) [Example 2, N-(1-azabicyclo[2.2.2]octan-3-yl)-1-(2-chlorophenyl)-6-oxo-3-pyridinecarboxamide] | < 100 |

| SMILES | EC50 [nM] |
| --- | --- |
| COc1ccccc1-n1cc(C(=O)NC2CN3CCC2CC3)ccc1=O (stereo not shown) [Example 20, N-(1-azabicyclo[2.2.2]octan-3-yl)-1-(2-methoxyphenyl)-6-oxo-3-pyridinecarboxamide] | 500 to 1000 |
| O=C(NC1CN2CCC1CC2)c1ccc(=O)n(-c2ccc(-c3ccc(Cl)cc3)cc2)c1 (stereo not shown) [Example 67, N-(1-azabicyclo[2.2.2]octan-3-yl)-1-[4-(4-chlorophenyl)phenyl]-6-oxo-3-pyridinecarboxamide] | 500 to 1000 |
| O=C(NC1CN2CCC1CC2)c1ccc(=O)n(-c2ccccc2Oc2ccccc2)c1 (stereo not shown) [Example 74, N-(1-azabicyclo[2.2.2]octan-3-yl)-6-oxo-1-(2-phenoxyphenyl)-3-pyridinecarboxamide] | 100 to 500 |
| O=C(NC1CN2CCC1CC2)c1ccc(=O)n(-c2ccc(Oc3ccc(Cl)cc3)cc2)c1 (stereo not shown) [Example 71, N-(1-azabicyclo[2.2.2]octan-3-yl)-1-[4-(4-chlorophenoxy)phenyl]-6-oxo-3-pyridinecarboxamide] | 100 to 500 |
| CSc1cc(Cl)ccc1-n1cc(C(=O)N[C@H]2CN3CCC2CC3)ccc1=O [Example 87, N-[(3R)-1-azabicyclo[2.2.2]octan-3-yl]-1-[4-chloro-2-(methylthio)phenyl]-6-oxo-3-pyridinecarboxamide] | < 100 |
| CSc1cc(Cl)ccc1-n1cc(C(=O)N[C@@H]2CN3CCC2CC3)ccc1=O [Example 88, N-[(3S)-1-azabicyclo[2.2.2]octan-3-yl]-1-[4-chloro-2-(methylthio)phenyl]-6-oxo-3-pyridinecarboxamide] | 100 to 500 |
| O=C(NC1CN2CCC1CC2)c1ccc(=O)n(-c2ccccc2-c2nc3ccccc3s2)c1 (stereo not shown) [Example 107, N-(1-azabicyclo[2.2.2]octan-3-yl)-1-[2-(1,3-benzothiazole-2-yl)phenyl]-6-oxo-3-pyridinecarboxamide] | < 100 |
| CN(C)c1ccc(-n2cc(C(=O)NC3CN4CCC3CC4)ccc2=O)cc1 (stereo not shown) [Example 113, N-(1-azabicyclo[2.2.2]octan-3-yl)-1-[4-dimethylaminophenyl]-6-oxo-3-pyridinecarboxamide] | 500 to 1000 |
| CCCc1ccc(-n2cc(C(=O)NC3CN4CCC3CC4)ccc2=O)cc1 (stereo not shown) [Example 15, N-(1-azabicyclo[2.2.2]octan-3-yl)-6-oxo-1-(4-propylphenyl)-3-pyridinecarboxamide] | 500 to 1000 |
| O=C(NC1CN2CCC1CC2)c1ccc(=O)n(-c2ccc(C3CCCCC3)cc2)c1 (stereo not shown) [Example 18, N-(1-azabicyclo[2.2.2]octan-3-yl)-1-(4-cyclohexylphenyl)-6-oxo-3-pyridinecarboxamide] | 500 to 1000 |
| Cc1ccccc1-n1cc(C(=O)NC2CN3CCC2CC3)ccc1=O (stereo not shown) [Example 11, N-(1-azabicyclo[2.2.2]octan-3-yl)-1-(2-methylphenyl)-6-oxo-3-pyridinecarboxamide] | > 1000 |
| O=C(NC1CN2CCC1CC2)c1ccc(=O)n(-c2cccc(Cl)c2Cl)c1 (stereo not shown) [Example 46, N-(1-azabicyclo[2.2.2]octan-3-yl)-1-(2,3-dichlorophenyl)-6-oxo-3-pyridinecarboxamide] | 100 to 500 |
| O=C(NC1CN2CCC1CC2)c1ccc(=O)n(-c2cccc3ccccc23)c1 (stereo not shown) [Example 102, N-(1-azabicyclo[2.2.2]octan-3-yl)-1-(1-naphthalenyl)-6-oxo-3-pyridinecarboxamide] | 100 to 500 |
| O=C(NC1CN2CCC1CC2)c1ccc(=O)n(-c2ccc(-c3ccccc3)cc2Cl)c1 (stereo not shown) [Example 70, N-(1-azabicyclo[2.2.2]octan-3-yl)-1-(2-chloro-4-phenylphenyl)-6-oxo-3-pyridinecarboxamide] | 100 to 500 |
| O=C(NC1CN2CCC1CC2)c1ccc(=O)n(-c2ccccc2SCc2ccccc2)c1 (stereo not shown) [Example 82, N-(1-azabicyclo[2.2.2]octan-3-yl)-6-oxo-1-[2-(phenylmethylthio)phenyl]-3-pyridinecarboxamide] | 100 to 500 |
| CC(C)(C)c1ccc(-n2cc(C(=O)NC3CN4CCC3CC4)ccc2=O)c(Cl)c1 (stereo not shown) [Example 36, N-(1-azabicyclo[2.2.2]octan-3-yl)-1-(4-tert-butyl-2-chlorophenyl)-6-oxo-3-pyridinecarboxamide] | 100 to 500 |
| Cc1ccc(Oc2ccc(-n3cc(C(=O)NC4CN5CCC4CC5)ccc3=O)cc2)cc1 (stereo not shown) [Example 72, N-(1-azabicyclo[2.2.2]octan-3-yl)-1-[4-(4-methylphenoxy)phenyl]-6-oxo-3-pyridinecarboxamide] | 100 to 500 |
| O=C(NC1CN2CCC1CC2)c1ccc(=O)n(-c2ccccc2)c1 (stereo not shown) [Example 1, N-(1-azoniabicyclo[2.2.2]octan-3-yl)-6-oxo-1-phenyl-3-pyridinecarboxamide] | > 1000 |
| Cc1ccc(-n2cc(C(=O)NC3CN4CCC3CC4)ccc2=O)c(Cl)c1 (stereo not shown) [Example 29, N-(1-azabicyclo[2.2.2]octan-3-yl)-1-(2-chloro-4-methylphenyl)-6-oxo-3-pyridinecarboxamide] | > 1000 |
| CCc1ccc(-n2cc(C(=O)NC3CN4CCC3CC4)ccc2=O)cc1 (stereo not shown) [Example 14, N-(1-azabicyclo[2.2.2]octan-3-yl)-1-(4-ethylphenyl)-6-oxo-3-pyridinecarboxamide] | 500 to 1000 |

Source: patent US8716309B2, “Pharmaceutical composition comprising pyridone derivatives” (priority 2011, dated 2014)
